The values below come from patent US5861296A, “Purified thermostable inorganic pyprophosphatase obtainable from thermococcus litoralis” (New England Biolabs, Inc., priority 1997, dated 1999).

Data set [1] concerns the target Thermococcus litoralis inorganic pyrophosphatase (PPase), wild type, SEQ ID NO: 10 (Thermococcus litoralis, UniProt P77992). Conditions: read-out: apparent Km for PPi (inorganic pyrophosphate); initial velocities at low substrate concentrations, Mg2+/PPi ratio of one; Lineweaver-Burke plot.
Method: The PPase is incubated at 75° C. for 10 minutes in a 100 μl reaction containing 30 mM Tris pH 9.0, 1.5 mM MgCl2 and 1.5 mM sodium pyrophosphate. The enzyme is then cooled quickly to room temperature and complexed with 0.9 ml of Taussky-Schorr reagent (5.0 g ferrous sulfate, 10 ml 10% ammonium molybdate in 10N sulfuric acid, in a final solution volume of 100 ml.) After 10 minutes, an absorbance reading is taken at 660 nm. The absorbance reading was compared to a standard curve using Sigma's (St. Louis, Mo.) phosphorous standard (#661-9). One standard unit will liberate 1.0 μmole of inorganic orthophosphate per minute under the above conditions.
Data set [2] deals with the molecule itself. The experiment in a line: gel filtration on Superose 12 HR 10/30 (125 kDa) against the subunit mass by SDS-PAGE and DNA sequence. Here is the method:
The molecular mass of the *T. litoralis* inorganic pyrophosphatase was estimated by gel filtration in a Superose 12 HR 10/30 (Pharmacia; Piscataway, N.J.) (10×300 mm). The column was equilibrated with 50 mM Tris-HCl pH 7.5 containing 100 mM NaCl and run at a flow rate of 0.5 ml/min. The Superose 12 HR 10/30 had been previously calibrated with different standard proteins: Catalase (232 kDa), Aldolase (158 kDa), Bovine Serum Albumin (67 KDa), Ovalbumin (43 kDa), Chymotrypsinogen (25 kDa), and Ribonuclease A (13.7 kDa) (all from Pharmacia; Piscataway, N.J.). From the plot of log (molecular mass) versus the distribution coefficient (Kav), a value of 125 kDa was calculated for the molecular mass of *T. litoralis* inorganic pyrophosphatase. Since the apparent molecular mass of the monomer was determined to be 20 to 21 kDa on an SDS-PAGE and 19,666 Da by the DNA sequence, the enzyme is probably homohexameric. The homohexameric structure of the *Thermococcus litoralis* inorganic pyrophosphatase agrees with other known cytoplasmic PPases from eubacterial and archaeal sources which tend to be tetrameric or hexameric complexes with single subunits of 19 to 23 kDa.
A general note: In gel filtration, larger molecules generally elute earlier.

One may read the Km as the concentration of substrate that gives half-maximal velocity. As for `O=P(O)(O)OP(=O)(O)O` [PPi, inorganic pyrophosphate], the Km in data set [1] was determined as 1000 µM.

B1: Thermococcus litoralis inorganic pyrophosphatase subunit (enzyme)
chain: MNPFHDLEPGPEVPEVVYALIEIPKGSRNKYELDKKTGLIKLDRVLYSPFHYPVDYGIIPQTWYDDDDPFDIMVIMREPTYPGVLIEARPIGLFKMIDSGDKDYKVLAVPVEDPYFNDWKDISDVPKAFLDEIAHFFQRYKELQGKEIIVEGWENAEKAKQEILRAIELYKEKFKK
Regarding B1, the binding result in data set [2] is listed as “binds”.
